Experimental findings from a polymer gas permeability compilation are described below.

Compound `*Oc1c(C)cc(C(C)(C)c2cc(C)c(OC(=O)c3cccc(C(*)=O)c3)c(Br)c2)cc1Br` (repeat unit) gave a CH4 permeability of 0.151 Barrer, a CO2 permeability of 5.45 Barrer, an H2 permeability of 23.3 Barrer and an N2 permeability of 0.219 Barrer. This compound showed an O2 permeability of 1.52 Barrer.

Turning to `*[Si](C)(C)CCCCCCCC[Si](*)(C)C` (repeat unit), the N2 permeability is 76.2 Barrer and the O2 permeability worked out at 188 Barrer.

Turning to `*Oc1cc2c(cc1O*)C1(c3cc(C)c(C)cc3-2)c2cc(C)c(C)cc2-c2cc3c(cc21)Oc1c(C#N)c(*)c(*)c(C#N)c1O3` (repeat unit), the CH4 permeability came to 1100 Barrer, the CO2 permeability was 13100 Barrer, the H2 permeability turned out to be 6700 Barrer and the N2 permeability amounted to 658 Barrer. This compound also showed an O2 permeability of 2360 Barrer.

The compound `*Oc1c(Br)cc(C(c2cc(Br)c(OC(=O)c3cc(C(*)=O)cc(C(C)(C)C)c3)c(Br)c2)(C(F)(F)F)C(F)(F)F)cc1Br` (repeat unit) had a CH4 permeability of 3.36 Barrer, a CO2 permeability of 85.1 Barrer, an H2 permeability of 149 Barrer and an N2 permeability of 4.47 Barrer. The O2 permeability stood at 22.1 Barrer.

In turn, `*c1ccc(-c2nc3cc(-c4ccc5[nH]c(*)nc5c4)ccc3[nH]2)cc1` (repeat unit) yielded an H2 permeability of 0.16 Barrer and an O2 permeability of 0.004 Barrer.

`*Oc1ccc(C(C)(C)c2ccc(Oc3ccc(C(=O)c4ccc(C(=O)c5ccc(*)cc5)cc4)cc3)cc2)cc1` (repeat unit) showed a CH4 permeability of 0.084 Barrer, a CO2 permeability of 2.19 Barrer, an H2 permeability of 9.07 Barrer and an N2 permeability of 0.087 Barrer. In addition, the O2 permeability was found to be 0.604 Barrer.

`*Oc1ccc2c(c1)C1(CC2(C)C)CC(C)(C)c2ccc(OC(=O)c3cccc(C(*)=O)c3)cc21` (repeat unit) had a CH4 permeability of 1.14 Barrer, a CO2 permeability of 18.9 Barrer, an N2 permeability of 1 Barrer and an O2 permeability of 5.31 Barrer.

`*CC(*)OC1C2CC3CC(C2)CC1C3` (repeat unit) registered a CO2 permeability of 25.2 Barrer, an N2 permeability of 1.69 Barrer and an O2 permeability of 6.01 Barrer.

The compound `*c1c(C)c(C)c(N2C(=O)c3ccc(Oc4cc(C)c(Oc5ccc6c(c5)C(=O)N(*)C6=O)c(C)c4C)cc3C2=O)c(C)c1C` (repeat unit) returned a CH4 permeability of 7.6 Barrer, a CO2 permeability of 200 Barrer, an H2 permeability of 230 Barrer and an N2 permeability of 8.1 Barrer. For the same compound, the O2 permeability came out at 33 Barrer.

`*Oc1ccc(C(C)(C)c2ccc(Oc3ccc4c(c3)C(=O)N(c3ccc(N5C(=O)c6ccc(*)cc6C5=O)cc3)C4=O)cc2)cc1` (repeat unit) registered a CH4 permeability of 0.04 Barrer, a CO2 permeability of 1.8 Barrer and an O2 permeability of 0.4 Barrer.

With `*Oc1ccc(Oc2ccc(C(=O)c3ccc(*)cc3)cc2)c(-c2cc(C)cc(C)c2)c1` (repeat unit), the CH4 permeability was 0.05 Barrer, the CO2 permeability turned out to be 1.6 Barrer, the H2 permeability was 4.6 Barrer and the N2 permeability was 0.053 Barrer. Also, the O2 permeability was determined as 0.33 Barrer.

The compound `*Oc1ccc(S(=O)(=O)c2ccc(Oc3ccc(C(C)(C)c4ccc(*)cc4)cc3CN3C(=O)c4ccccc4C3=O)cc2)cc1` (repeat unit) had a CH4 permeability of 0.08 Barrer, a CO2 permeability of 2.12 Barrer, an N2 permeability of 0.08 Barrer and an O2 permeability of 0.54 Barrer.

For `*c1cc(C)c2c(c1)S(=O)(=O)c1cc(N3C(=O)c4ccc(-c5ccc6c(c5)C(=O)N(*)C6=O)cc4C3=O)cc(C)c1-2` (repeat unit), the CH4 permeability is 0.195 Barrer, the CO2 permeability was 7.73 Barrer, the H2 permeability was determined as 28.2 Barrer and the N2 permeability was determined as 0.499 Barrer. The same compound gave an O2 permeability of 3.29 Barrer.

`*c1ccc(Oc2ccc(Oc3ccc(Oc4ccc(N5C(=O)c6ccc(-c7ccc8c(c7)C(=O)N(*)C8=O)cc6C5=O)cc4)cc3)cc2)cc1` (repeat unit): the CH4 permeability came to 0.0305 Barrer, the CO2 permeability was determined as 1.25 Barrer, the N2 permeability came out at 0.0392 Barrer and the O2 permeability was determined as 0.256 Barrer.

`*Oc1c(C)cc(-c2cc(C)c(Oc3ccc(S(=O)(=O)c4ccc(*)cc4)cc3)c(C)c2C)c(C)c1C` (repeat unit) showed a CH4 permeability of 0.94 Barrer, a CO2 permeability of 25.5 Barrer, an H2 permeability of 63 Barrer and an N2 permeability of 1.2 Barrer. The O2 permeability was 6 Barrer.

On to `*Oc1c(C)cc(C(C)(C)c2ccc(C(C)(C)c3cc(C)c(Oc4ccc(S(=O)(=O)c5ccc(*)cc5)cc4)c(C)c3)cc2)cc1C` (repeat unit), for which the CH4 permeability came to 0.6 Barrer, the CO2 permeability stood at 13.2 Barrer, the N2 permeability came to 0.571 Barrer and the O2 permeability stood at 3.2 Barrer.

The compound `*=CC1CC(C=*)C(COS(=O)(=O)c2ccc(C)cc2)C1` (repeat unit) had an N2 permeability of 0.06 Barrer and an O2 permeability of 0.37 Barrer.

`*C(=C(*)c1ccc2c(c1)C(C)(C)CC2(C)C)c1ccc(F)c(F)c1` (repeat unit) gave a CH4 permeability of 35000 Barrer, a CO2 permeability of 44200 Barrer, an H2 permeability of 36800 Barrer and an N2 permeability of 16600 Barrer. Further, the O2 permeability turned out to be 18700 Barrer.

With `*C(=C(*)c1ccc2c(c1)C(C)(C)c1cc(Br)ccc1-2)c1ccccc1` (repeat unit), the CH4 permeability turned out to be 3000 Barrer, the CO2 permeability was found to be 8000 Barrer, the H2 permeability worked out at 3700 Barrer and the N2 permeability is 1100 Barrer. The same compound had an O2 permeability of 2000 Barrer.

For `*CC(*)(C)C(=O)OCC(F)(F)C(F)(F)C(F)(F)C(F)(F)C(F)(F)C(F)(F)C(F)(F)F` (repeat unit), the CH4 permeability was determined as 14 Barrer, the CO2 permeability came to 130 Barrer, the H2 permeability turned out to be 82 Barrer and the N2 permeability came to 15 Barrer. Besides, the O2 permeability stood at 30 Barrer.

Compound `*CO*` (repeat unit) returned a CO2 permeability of 0.45 Barrer, an N2 permeability of 0.024 Barrer and an O2 permeability of 0.09 Barrer.

`*c1ccc2c(c1)nc1n2C(=O)c2ccc(C(=O)Oc3ccc(C(c4ccc(OC(=O)c5ccc6c(c5)C(=O)n5c-6nc6ccc(*)cc65)cc4)(C(F)(F)F)C(F)(F)F)cc3)cc2-1` (repeat unit) had an H2 permeability of 13.3 Barrer, an N2 permeability of 0.155 Barrer and an O2 permeability of 0.977 Barrer.

Compound `*OC(=O)c1ccc(C(=O)Oc2ccc(C3(c4ccc(O*)c(C)c4)OC(=O)c4ccccc43)cc2C)cc1` (repeat unit) yielded a CH4 permeability of 0.18 Barrer, a CO2 permeability of 5 Barrer, an N2 permeability of 0.15 Barrer and an O2 permeability of 1.04 Barrer.

As to `*Oc1c(-c2ccccc2)cc(*)cc1-c1ccccc1` (repeat unit), the CH4 permeability was determined as 2.7 Barrer, the CO2 permeability amounted to 39.9 Barrer, the H2 permeability was found to be 28 Barrer and the N2 permeability was determined as 1.5 Barrer. For the same compound, the O2 permeability turned out to be 7.7 Barrer.

Turning to `*CC(*)(C)C` (repeat unit), the H2 permeability came to 13.3 Barrer, the N2 permeability is 0.76 Barrer and the O2 permeability worked out at 2.89 Barrer.

As for `*c1ccc(Oc2ccc(N3C(=O)c4ccc(Oc5ccc(C(c6ccc(Oc7ccc8c(c7)C(=O)N(*)C8=O)cc6)(C(F)(F)F)C(F)(F)F)cc5)cc4C3=O)cc2)cc1` (repeat unit), the H2 permeability stood at 8.95 Barrer, the N2 permeability came out at 0.084 Barrer and the O2 permeability was 0.55 Barrer.

`*c1cccc(N2C(=O)c3ccc(Oc4ccc(Oc5ccc6c(c5)C(=O)N(*)C6=O)cc4)cc3C2=O)c1` (repeat unit) returned a CO2 permeability of 0.598 Barrer, an H2 permeability of 3.75 Barrer, an N2 permeability of 0.016 Barrer and an O2 permeability of 0.149 Barrer.

On to `*Oc1ccc(S(=O)(=O)c2ccc(Oc3ccc(C(C)(C)c4ccc(*)cc4)cc3CN)cc2)cc1` (repeat unit), for which the CH4 permeability was determined as 0.11 Barrer, the CO2 permeability came out at 1.95 Barrer, the N2 permeability came to 0.11 Barrer and the O2 permeability is 0.7 Barrer.

In turn, `*c1ccc(-c2ccc(N3C(=O)c4ccc(C(=O)Oc5ccc(C(c6ccc(OC(=O)c7ccc8c(c7)C(=O)N(*)C8=O)cc6)(C(F)(F)F)C(F)(F)F)cc5)cc4C3=O)cc2)cc1` (repeat unit) came in with an H2 permeability of 5.01 Barrer, an N2 permeability of 0.0517 Barrer and an O2 permeability of 0.348 Barrer.

As for `*C(=C(*)c1ccc2c(c1)C(C)(C)CC2(C)C)c1cccc(F)c1` (repeat unit), the CH4 permeability was found to be 27800 Barrer, the CO2 permeability was determined as 35200 Barrer, the H2 permeability worked out at 27000 Barrer and the N2 permeability stood at 12000 Barrer. The O2 permeability worked out at 14300 Barrer.

`*=CC1CC(C=*)C(C(F)(F)F)(C(F)(F)F)C1(F)F` (repeat unit): the CH4 permeability amounted to 9.54 Barrer, the CO2 permeability was determined as 102 Barrer, the N2 permeability is 10.7 Barrer and the O2 permeability stood at 27.7 Barrer.

As to `*Oc1ccc(C2(c3ccc(OC(=O)c4cccc(C(*)=O)c4)cc3)c3ccccc3-c3ccccc32)cc1` (repeat unit), the CH4 permeability was 0.71 Barrer, the CO2 permeability was 20.1 Barrer, the N2 permeability was determined as 0.64 Barrer and the O2 permeability stood at 3.92 Barrer.

Take `*c1c(C)cc(-c2cc(C)c(N3C(=O)c4cc5c(cc4C3=O)S(=O)(=O)c3cc4c(cc3S5(=O)=O)C(=O)N(*)C4=O)c(C)c2)cc1C` (repeat unit): the CH4 permeability was found to be 1.21 Barrer, the CO2 permeability amounted to 39 Barrer, the H2 permeability amounted to 58 Barrer and the N2 permeability came out at 1.33 Barrer. The same compound yielded an O2 permeability of 6.6 Barrer.

`*CN1CN(*)c2cc3c(cc21)C1(C(C)C)c2ccccc2C3(C(C)C)c2cc(*)c(*)cc21` (repeat unit): the CH4 permeability came out at 215 Barrer, the H2 permeability turned out to be 4740 Barrer, the N2 permeability worked out at 188 Barrer and the O2 permeability was 1070 Barrer.

Compound `*c1ccc(Oc2ccc(C(c3ccc(Oc4ccc(N5C(=O)c6ccc(C(=O)c7ccc8c(c7)C(=O)N(*)C8=O)cc6C5=O)cc4)cc3)(C(F)(F)F)C(F)(F)F)cc2)cc1` (repeat unit) had a CH4 permeability of 0.105 Barrer, a CO2 permeability of 4.67 Barrer, an H2 permeability of 16.1 Barrer and an N2 permeability of 0.195 Barrer. Besides, the O2 permeability was 1.14 Barrer.
